Assay results reported in paper PMC4917206, “Chemical Modification of Influenza CD8+ T-Cell Epitopes Enhances Their Immunogenicity Regardless of Immunodominance” (PLoS ONE, 2016).

Tests used:
HLA-A*0201 = molecular target: T1, HLA-A*0201 (Homo sapiens, UniProt P04439, D140Y/D185E/D98H/E176V/E277Q/G131W/G231S/I119V/I121R/I166T/I218V/L300P/L318F/N151K/N90K/P208A/P217A/Q86G/Q94H/R138H/R169H/T345S); type: binding
T1 construct: Soluble MHC was dissolved in PBS containing 0.5 mg/ml bovine γ-globulin; made in house

[1] = system: CD8+ T cells of HLA-A2+ human donors; type: cell-based
[2] = system: splenocytes of WT-vaccinated HLA-A2 tg mice; type: cell-based, mouse; design: key to response compared with WT peptide control, mouse splenocytes: *: Lower response than WT peptide

Substance: FMYSDFHF[2-AOC] [F19]
- FP binding score, percentage inhibition of tracer peptide binding, 4h (HLA-A*0201): 87%
- FP binding score, percentage inhibition of tracer peptide binding, 24h (HLA-A*0201): 86%
- DC model: IFN-γ-positive CD8+ T cells, Average [1]: 0.07
- rank by T cell activation, DC model [1]: Lower 3
- Mouse splenocytes (ex vivo assay), Average [2]: 62

Substance: FMYSDFHF[CHA] [F49]
- FP binding score, percentage inhibition of tracer peptide binding, 4h (HLA-A*0201): 88%
- FP binding score, percentage inhibition of tracer peptide binding, 24h (HLA-A*0201): 86%
- DC model: IFN-γ-positive CD8+ T cells, Average [1]: 0.18
- rank by T cell activation, DC model [1]: Upper 3
- Mouse splenocytes (ex vivo assay), Average [2]: 60
- rank by T cell activation, mouse splenocytes [2]: Lower 3

Substance: FMYSDFHF[CSET] [F54]
- FP binding score, percentage inhibition of tracer peptide binding, 4h (HLA-A*0201): 82%
- FP binding score, percentage inhibition of tracer peptide binding, 24h (HLA-A*0201): 80%
- DC model: IFN-γ-positive CD8+ T cells, Average [1]: 0.14
- rank by T cell activation, DC model [1]: Upper 3
- Mouse splenocytes (ex vivo assay), Average [2]: 78

Substance: FMYSDFHF[CpALA] [F52]
- FP binding score, percentage inhibition of tracer peptide binding, 4h (HLA-A*0201): 81%
- FP binding score, percentage inhibition of tracer peptide binding, 24h (HLA-A*0201): 78%
- DC model: IFN-γ-positive CD8+ T cells, Average [1]: 0.13
- Mouse splenocytes (ex vivo assay), Average [2]: 79

Substance: FMYSDFHF[HPG] [F63]
- FP binding score, percentage inhibition of tracer peptide binding, 4h (HLA-A*0201): 81%
- FP binding score, percentage inhibition of tracer peptide binding, 24h (HLA-A*0201): 78%
- DC model: IFN-γ-positive CD8+ T cells, Average [1]: 0.08
- Mouse splenocytes (ex vivo assay), Average [2]: 83

Substance: F[2-AOC]LSTVLGV [N177]
- FP binding score, percentage inhibition of tracer peptide binding, 4h (HLA-A*0201): 90%
- FP binding score, percentage inhibition of tracer peptide binding, 24h (HLA-A*0201): 88%
- DC model: IFN-γ-positive CD8+ T cells, Average [1]: 0.04
- Mouse splenocytes (ex vivo assay), Average [2]: 46

Substance: F[2-AOC]YSDFHF[CHA] [F48]
- FP binding score, percentage inhibition of tracer peptide binding, 4h (HLA-A*0201): 93%
- FP binding score, percentage inhibition of tracer peptide binding, 24h (HLA-A*0201): 92%
- DC model: IFN-γ-positive CD8+ T cells, Average [1]: 0.11
- Mouse splenocytes (ex vivo assay), Average [2]: 61

Substance: F[2-AOC]YSDFHF[NLE] [F69]
- FP binding score, percentage inhibition of tracer peptide binding, 4h (HLA-A*0201): 90%
- FP binding score, percentage inhibition of tracer peptide binding, 24h (HLA-A*0201): 89%
- DC model: IFN-γ-positive CD8+ T cells, Average [1]: 0.08
- rank by T cell activation, DC model [1]: Lower 3
- Mouse splenocytes (ex vivo assay), Average [2]: 63

Substance: GILGFV[BUTGLY]TL [G20]
- FP binding score, percentage inhibition of tracer peptide binding, 4h (HLA-A*0201): 82%
- FP binding score, percentage inhibition of tracer peptide binding, 24h (HLA-A*0201): 79%
- DC model: IFN-γ-positive CD8+ T cells, Average [1]: 0.07
- rank by T cell activation, DC model [1]: Lower 3
- Mouse splenocytes (ex vivo assay), Average [2]: 36

Substance: NMLSTVLG[CpALA] [N122]
- FP binding score, percentage inhibition of tracer peptide binding, 4h (HLA-A*0201): 65%
- FP binding score, percentage inhibition of tracer peptide binding, 24h (HLA-A*0201): 60%
- Mouse splenocytes (ex vivo assay), Average [2]: 128

Substance: NM[2-AOC]STVLGV [N41]
- FP binding score, percentage inhibition of tracer peptide binding, 4h (HLA-A*0201): 78%
- FP binding score, percentage inhibition of tracer peptide binding, 24h (HLA-A*0201): 73%
- DC model: IFN-γ-positive CD8+ T cells, Average [1]: 0.08
- rank by T cell activation, DC model [1]: Upper 3
- Mouse splenocytes (ex vivo assay), Average [2]: 5

Substance: N[2-AOC]LSTVLGV [N40]
- FP binding score, percentage inhibition of tracer peptide binding, 4h (HLA-A*0201): 71%
- FP binding score, percentage inhibition of tracer peptide binding, 24h (HLA-A*0201): 67%
- DC model: IFN-γ-positive CD8+ T cells, Average [1]: 0.06
- Mouse splenocytes (ex vivo assay), Average [2]: 375
- rank by T cell activation, mouse splenocytes [2]: Upper 3
- response compared with WT peptide control, mouse splenocytes [2]: N40 ^*

Substance: [2-AOC]MLSTVLGV [N39]
- FP binding score, percentage inhibition of tracer peptide binding, 4h (HLA-A*0201): 68%
- FP binding score, percentage inhibition of tracer peptide binding, 24h (HLA-A*0201): 63%
- DC model: IFN-γ-positive CD8+ T cells, Average [1]: 0.05
- Mouse splenocytes (ex vivo assay), Average [2]: 334

Substance: [2-AOC]MYSDFHFI [F95]
- FP binding score, percentage inhibition of tracer peptide binding, 4h (HLA-A*0201): 82%
- FP binding score, percentage inhibition of tracer peptide binding, 24h (HLA-A*0201): 80%
- DC model: IFN-γ-positive CD8+ T cells, Average [1]: 0.12
- Mouse splenocytes (ex vivo assay), Average [2]: 90

Substance: [3-PYRA]ILGFVFT[2-AOC] [G29]
- FP binding score, percentage inhibition of tracer peptide binding, 4h (HLA-A*0201): 44%
- FP binding score, percentage inhibition of tracer peptide binding, 24h (HLA-A*0201): 38%
- DC model: IFN-γ-positive CD8+ T cells, Average [1]: 0.12
- Mouse splenocytes (ex vivo assay), Average [2]: 39

Substance: [3-PYRA]MLSTVLGV [N43]
- FP binding score, percentage inhibition of tracer peptide binding, 4h (HLA-A*0201): 47%
- FP binding score, percentage inhibition of tracer peptide binding, 24h (HLA-A*0201): 41%
- DC model: IFN-γ-positive CD8+ T cells, Average [1]: 0.06
- Mouse splenocytes (ex vivo assay), Average [2]: 108

Substance: [3-PYRA]MLSTVLG[2-AOC] [N8]
- FP binding score, percentage inhibition of tracer peptide binding, 4h (HLA-A*0201): 85%
- FP binding score, percentage inhibition of tracer peptide binding, 24h (HLA-A*0201): 82%
- DC model: IFN-γ-positive CD8+ T cells, Average [1]: 0.01
- rank by T cell activation, DC model [1]: Lower 3
- Mouse splenocytes (ex vivo assay), Average [2]: 1
- rank by T cell activation, mouse splenocytes [2]: Lower 3

Substance: [3-THI]MLSTVLG[2-AOC] [N98]
- FP binding score, percentage inhibition of tracer peptide binding, 4h (HLA-A*0201): 83%
- FP binding score, percentage inhibition of tracer peptide binding, 24h (HLA-A*0201): 79%
- DC model: IFN-γ-positive CD8+ T cells, Average [1]: 0.04
- Mouse splenocytes (ex vivo assay), Average [2]: 93

Substance: [3-THI][2-AOC]YSDFHFI [F102]
- FP binding score, percentage inhibition of tracer peptide binding, 4h (HLA-A*0201): 92%
- FP binding score, percentage inhibition of tracer peptide binding, 24h (HLA-A*0201): 91%
- DC model: IFN-γ-positive CD8+ T cells, Average [1]: 0.06
- rank by T cell activation, DC model [1]: Lower 3
- Mouse splenocytes (ex vivo assay), Average [2]: 96
- rank by T cell activation, mouse splenocytes [2]: Upper 3
- response compared with WT peptide control, mouse splenocytes [2]: F102 ^*

Substance: [4-FPHE]MYSDFHFI [F105]
- FP binding score, percentage inhibition of tracer peptide binding, 4h (HLA-A*0201): 86%
- FP binding score, percentage inhibition of tracer peptide binding, 24h (HLA-A*0201): 78%
- DC model: IFN-γ-positive CD8+ T cells, Average [1]: 0.08
- Mouse splenocytes (ex vivo assay), Average [2]: 62

Substance: [4-FPHE][2-AOC]LSTVLGV [N95]
- FP binding score, percentage inhibition of tracer peptide binding, 4h (HLA-A*0201): 92%
- FP binding score, percentage inhibition of tracer peptide binding, 24h (HLA-A*0201): 90%
- DC model: IFN-γ-positive CD8+ T cells, Average [1]: 0.07
- Mouse splenocytes (ex vivo assay), Average [2]: 3

Substance: [BCA][2-AOC]YSDFHFI [F112]
- FP binding score, percentage inhibition of tracer peptide binding, 4h (HLA-A*0201): 92%
- FP binding score, percentage inhibition of tracer peptide binding, 24h (HLA-A*0201): 91%
- Mouse splenocytes (ex vivo assay), Average [2]: 86

Substance: [CSET][2-AOC]YSDFHFI [F118]
- FP binding score, percentage inhibition of tracer peptide binding, 4h (HLA-A*0201): 95%
- FP binding score, percentage inhibition of tracer peptide binding, 24h (HLA-A*0201): 93%
- Mouse splenocytes (ex vivo assay), Average [2]: 81

Substance: [CSME][2-AOC]LSTVLGV [N169]
- FP binding score, percentage inhibition of tracer peptide binding, 4h (HLA-A*0201): 89%
- FP binding score, percentage inhibition of tracer peptide binding, 24h (HLA-A*0201): 87%
- DC model: IFN-γ-positive CD8+ T cells, Average [1]: 0.09
- rank by T cell activation, DC model [1]: Upper 3
- Mouse splenocytes (ex vivo assay), Average [2]: 366

Substance: [NLE]MLSTVLGV [N52]
- FP binding score, percentage inhibition of tracer peptide binding, 4h (HLA-A*0201): 54%
- FP binding score, percentage inhibition of tracer peptide binding, 24h (HLA-A*0201): 46%
- DC model: IFN-γ-positive CD8+ T cells, Average [1]: 0.03
- Mouse splenocytes (ex vivo assay), Average [2]: 341

Substance: [NVA]MLSTVLG[2-AOC] [N15]
- FP binding score, percentage inhibition of tracer peptide binding, 4h (HLA-A*0201): 71%
- FP binding score, percentage inhibition of tracer peptide binding, 24h (HLA-A*0201): 65%
- DC model: IFN-γ-positive CD8+ T cells, Average [1]: 0.07
- Mouse splenocytes (ex vivo assay), Average [2]: 3
- rank by T cell activation, mouse splenocytes [2]: Lower 3

Substance: [OM-HS][2-AOC]LSTVLGV [N91]
- FP binding score, percentage inhibition of tracer peptide binding, 4h (HLA-A*0201): 91%
- FP binding score, percentage inhibition of tracer peptide binding, 24h (HLA-A*0201): 87%
- Mouse splenocytes (ex vivo assay), Average [2]: 344

Substance: [SOME]MLSTVLGV [N61]
- FP binding score, percentage inhibition of tracer peptide binding, 4h (HLA-A*0201): 62%
- FP binding score, percentage inhibition of tracer peptide binding, 24h (HLA-A*0201): 54%
- Mouse splenocytes (ex vivo assay), Average [2]: 348

Substance: [THR-BZL]MLSTVLGV [N176]
- FP binding score, percentage inhibition of tracer peptide binding, 4h (HLA-A*0201): 73%
- FP binding score, percentage inhibition of tracer peptide binding, 24h (HLA-A*0201): 70%
- DC model: IFN-γ-positive CD8+ T cells, Average [1]: 0.03
- Mouse splenocytes (ex vivo assay), Average [2]: 355

Substance: [THR-BZL][2-AOC]YSDFHFI [F141]
- FP binding score, percentage inhibition of tracer peptide binding, 4h (HLA-A*0201): 94%
- FP binding score, percentage inhibition of tracer peptide binding, 24h (HLA-A*0201): 93%
- Mouse splenocytes (ex vivo assay), Average [2]: 67
